Experimental findings from patent publication US20240308994A1, “ISOXAZOLE DERIVATIVE OR PHARMACEUTICALLY ACCEPTABLE SALT THEREOF AND USE THEREOF” (INDUSTRY-UNIVERSITY COOPERATION FOUNDATION HANYANG …, priority 2021, published 2024) are described below.

The target in one data set is T1, FMS (h) (Homo sapiens, UniProt P07333).
T1 construct: purchased Reaction Biology Corp. (Kinase HotSpot service)
Description: Kinase HotSpot radiometric assay, activity on CSF-1R (FMS). The data set is classed as biochemical.

Another data set deals with EMS and FLT3. Description: Protein Kinase Profiling analysis, selectivity (FIG. 4). In kind it is biochemical.
The next data set deals with T2, BRafV600E (Homo sapiens, UniProt P15056, V600E).
T2 construct: purchased Reaction Biology Corp. (Kinase HotSpot service)
T2 sequence (P15056 416-766 V600E limits assumed): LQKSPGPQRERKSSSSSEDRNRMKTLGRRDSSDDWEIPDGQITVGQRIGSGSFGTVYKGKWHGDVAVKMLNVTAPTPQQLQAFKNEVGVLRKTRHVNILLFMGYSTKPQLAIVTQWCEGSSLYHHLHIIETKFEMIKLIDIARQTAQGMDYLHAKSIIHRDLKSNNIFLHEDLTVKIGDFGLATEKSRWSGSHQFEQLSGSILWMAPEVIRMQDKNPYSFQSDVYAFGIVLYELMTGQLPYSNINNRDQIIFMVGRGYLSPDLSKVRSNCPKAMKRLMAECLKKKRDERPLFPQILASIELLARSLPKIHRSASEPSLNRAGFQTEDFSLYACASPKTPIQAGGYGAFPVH
Description: protein kinase profile for 50 selected protein Kinase (FIG. 5), BRafV600E. In kind it is biochemical. The conditions noted are these: single-dose concentration 1.0 μM.

The next data set deals with T3, CSF-1R (Homo sapiens, UniProt P07333).
T3 construct: purchased Reaction Biology Corp. (Kinase HotSpot service)
T3 sequence (P07333 20-972): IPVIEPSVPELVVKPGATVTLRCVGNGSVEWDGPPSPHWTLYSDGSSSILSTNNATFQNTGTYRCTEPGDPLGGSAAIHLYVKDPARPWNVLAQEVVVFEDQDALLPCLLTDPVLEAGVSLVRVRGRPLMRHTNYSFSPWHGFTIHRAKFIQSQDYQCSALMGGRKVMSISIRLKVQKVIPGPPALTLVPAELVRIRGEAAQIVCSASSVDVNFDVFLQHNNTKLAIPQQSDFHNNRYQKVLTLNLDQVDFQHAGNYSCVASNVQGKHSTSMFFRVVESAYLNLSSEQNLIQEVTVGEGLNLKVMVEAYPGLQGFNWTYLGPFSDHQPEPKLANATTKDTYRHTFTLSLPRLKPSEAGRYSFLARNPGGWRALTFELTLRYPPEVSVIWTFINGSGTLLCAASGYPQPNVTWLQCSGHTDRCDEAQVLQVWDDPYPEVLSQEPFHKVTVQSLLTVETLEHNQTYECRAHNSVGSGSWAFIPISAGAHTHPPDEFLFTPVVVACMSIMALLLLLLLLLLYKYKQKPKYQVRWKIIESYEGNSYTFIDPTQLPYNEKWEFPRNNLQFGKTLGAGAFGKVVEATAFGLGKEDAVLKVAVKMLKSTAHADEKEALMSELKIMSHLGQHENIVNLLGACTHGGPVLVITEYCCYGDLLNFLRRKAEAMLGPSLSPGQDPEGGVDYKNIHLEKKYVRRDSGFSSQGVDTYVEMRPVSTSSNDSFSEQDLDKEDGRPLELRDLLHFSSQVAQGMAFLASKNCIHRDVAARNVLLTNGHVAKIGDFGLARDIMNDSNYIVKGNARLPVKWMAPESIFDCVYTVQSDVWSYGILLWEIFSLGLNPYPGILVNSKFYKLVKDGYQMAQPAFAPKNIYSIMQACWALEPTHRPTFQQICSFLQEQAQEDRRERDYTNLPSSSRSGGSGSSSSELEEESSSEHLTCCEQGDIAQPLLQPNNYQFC
Description: protein kinase profile for 50 selected protein Kinase (FIG. 5), CSF-1R. The data set is classed as biochemical. The settings on record: single-dose concentration 1.0 μM.

The next data set in a line: metabolic stability (MS). In kind it is in vitro ADME.
In the next data set the target is T4, Lyn (Homo sapiens, UniProt P07948).
T4 construct: purchased Reaction Biology Corp. (Kinase HotSpot service)
T4 sequence (P07948 whole entry): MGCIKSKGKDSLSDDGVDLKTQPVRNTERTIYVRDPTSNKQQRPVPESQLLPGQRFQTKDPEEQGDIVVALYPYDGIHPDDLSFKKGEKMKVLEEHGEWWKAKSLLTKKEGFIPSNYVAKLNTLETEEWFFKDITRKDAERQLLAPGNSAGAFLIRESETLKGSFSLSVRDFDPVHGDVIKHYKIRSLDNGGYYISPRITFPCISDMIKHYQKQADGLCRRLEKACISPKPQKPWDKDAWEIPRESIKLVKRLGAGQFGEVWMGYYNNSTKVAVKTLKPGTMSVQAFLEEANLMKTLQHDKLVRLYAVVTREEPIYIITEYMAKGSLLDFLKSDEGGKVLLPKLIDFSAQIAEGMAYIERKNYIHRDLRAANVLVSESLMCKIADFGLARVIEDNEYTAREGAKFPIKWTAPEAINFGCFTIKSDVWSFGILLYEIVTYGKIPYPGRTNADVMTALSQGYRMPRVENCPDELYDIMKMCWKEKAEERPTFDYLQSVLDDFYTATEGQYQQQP
Description: protein kinase profile for 50 selected protein Kinase (FIG. 5), Lyn. The data set is classed as biochemical. The conditions noted are these: single-dose concentration 1.0 μM.

In another data set the target is T5, CRaf (Homo sapiens, UniProt P04049).
T5 construct: purchased Reaction Biology Corp. (Kinase HotSpot service)
T5 sequence (P04049 whole entry): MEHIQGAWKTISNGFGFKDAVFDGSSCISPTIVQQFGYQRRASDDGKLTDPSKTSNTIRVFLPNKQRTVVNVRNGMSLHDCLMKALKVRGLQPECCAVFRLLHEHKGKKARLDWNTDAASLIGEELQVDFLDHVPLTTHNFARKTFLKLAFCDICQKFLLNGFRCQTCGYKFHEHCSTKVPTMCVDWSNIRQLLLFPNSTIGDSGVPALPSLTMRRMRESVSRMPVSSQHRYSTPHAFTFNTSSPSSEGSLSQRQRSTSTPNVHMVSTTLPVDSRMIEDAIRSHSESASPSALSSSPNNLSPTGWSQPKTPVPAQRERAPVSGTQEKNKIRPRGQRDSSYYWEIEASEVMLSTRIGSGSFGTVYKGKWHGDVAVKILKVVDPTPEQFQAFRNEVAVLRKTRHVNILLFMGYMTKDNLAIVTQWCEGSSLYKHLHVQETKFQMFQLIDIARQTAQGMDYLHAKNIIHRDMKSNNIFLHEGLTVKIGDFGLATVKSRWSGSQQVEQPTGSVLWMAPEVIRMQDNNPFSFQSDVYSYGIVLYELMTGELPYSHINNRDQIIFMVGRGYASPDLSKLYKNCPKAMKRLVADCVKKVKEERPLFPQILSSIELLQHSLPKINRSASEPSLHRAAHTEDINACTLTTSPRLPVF
In words: protein kinase profile for 50 selected protein Kinase (FIG. 5), CRaf. In kind it is biochemical. The settings on record: single-dose concentration 1.0 μM.

A short description of another data set: PAMPA assay. The data set is classed as in vitro ADME. The conditions noted are these: read-out: PAMPA assay Pe Avg.
A short description of a further data set: plasma stability (PS). In kind it is in vitro ADME.
[1] abbreviates: Table 3, read-out: IC50 (M) on FMS.

Molecules are shown by their SMILES. Where two headings read alike, the source gives them in different places.

T1 sequence (P07333 20-972): as the sequence (P07333 20-972) above

Turning to `Cc1cc(C(=O)Nc2ccc(C3CC(C)(C)NC(C)(C)C3)cc2C2=CCC(C)CC2)no1` (centres unmarked) [Compound 92b, 5-methyl-N-(4′-methyl-5-(2,2,6,6-tetramethylpiperidin-4-yl)-2′,3′,4,5′-tetrahydro-[1,1′-biphenyl]-2-yl)isoxazole-3-carboxamide], the IC50 (usually the midpoint of a concentration-inhibition curve) is below 1e-07 M at FMS (h) (Table 2, read-out: IC50 (μm)) and below 1e-07 M at FMS (h) (setting [1]). Besides, the “kinase selectivity of EMS and FLT3” value in the data set on EMS and FLT3 is on record as “high selectivity”. As for `Cc1ccc(NC(=O)c2cc(N3CCN(C)CC3)cc(C(F)(F)F)c2)cc1NC(=O)c1cnoc1C` [Comparative example 1, reference compound], the “inhibitory activity against BRafV600E” value on BRafV600E is “inhibitory activity”. Moreover, at CSF-1R, the “inhibitory activity against CSF-1R” value is listed as “inhibitory activity”. In the data set “metabolic stability (MS)”, the “MS (human) %@60 min” value is on record as below 10%. Moreover, the IC50 at FMS (h) (Table 5, read-out: IC50 on CSF-1R) was found to be 1.03e-08 M. For the same compound, the “inhibitory activity against Lyn” value against Lyn is reported as “inhibitory activity”. The “inhibitory activity against CRaf” value against CRaf is given as “inhibitory activity”. As for `Cc1cc(C(=O)Nc2cc(NC(=O)c3cc(N4CCN(C)CC4)cc(C(F)(F)F)c3)ccc2C)no1` [Compound 5a, 5-methyl-N-(2-methyl-5-(3-(4-methylpiperazin-1-yl)-5-(trifluoromethyl)benzamido)phenyl)isoxazole-3-carboxamide], in the data set “PAMPA assay”, the Papp worked out at 55.5 ×10⁻⁶ cm/s. The PS (human) @30 min in the data set “plasma stability (PS)” (30 min) is above 100%. The same compound gave a PS (human) @60 min in the data set “plasma stability (PS)” (60 min) above 100%. Regarding `Cc1cc(C(=O)Nc2ccc(C3CCC[N+](C)(C)CC3)cc2C2=CCC(C)(C)CC2)no1` (centres unmarked) [Compound 80c, 4-(4′,4′-dimethyl-6-(5-methylisoxazole-3-carboxamido)-2′,3′,4′,5′-tetrahydro-[1,1′-biphenyl]-3-yl)-1,1-dimethylazepan-1-ium], the IC50 on FMS (h) (setting [1]) was below 1e-07 M. Consider `Cc1cc(C(=O)Nc2ccc(C3CCN(CC4CC4)CC3)cc2C2=CCC(C)(C)CC2)no1` [Compound 78b, N-(5-(1-(cyclopropylmethyl)piperidin-4-yl)-4′,4′-dimethyl-2′,3′,4′,5′-tetrahydro-[1,1′-biphenyl]-2-yl)-5-methylisoxazole-3-carboxamide], for which the IC50 on FMS (h) (Table 1, read-out: IC50) was below 1e-07 M; at FMS (h) (setting [1]) it was below 1e-07 M. `CC(C)=CCN1CCC(c2ccc(NC(=O)c3cc(C)on3)c(C3=CCCCC3)c2)CC1` [Compound 76b, 5-methyl-N-(5-(1-(3-methylbut-2-en-1-yl)piperidin-4-yl)-2′,3′,4′,5′-tetrahydro-[1,1′-biphenyl]-2-yl)isoxazole-3-carboxamide]: the IC50 on FMS (h) (Table 1, read-out: IC50) is 1e-07 to 1e-06 M; at FMS (h) (setting [1]) it was below 1e-07 M.

For `Cc1cc(C(=O)Nc2ccc(C3CCCN(C)CC3)cc2C2=CCC(C)(C)CC2)no1` (centres unmarked) [Compound 68c], the IC50 at FMS (h) (Table 1, read-out: IC50) is below 1e-07 M; at FMS (h) (setting [1]) it was below 1e-07 M. `Cc1cc(C(=O)Nc2ccc(C3CCNCC3)cc2C2CCCCC2)no1` [Compound 65b, N-(2-cyclohexyl-4-(piperidin-4-yl)phenyl)-5-methylisoxazole-3-carboxamide]: the half-inhibitory concentration (IC50) at FMS (h) (Table 1, read-out: IC50) was above 1e-06 M; at FMS (h) (setting [1]), above 1e-06 M. As to `Cc1cc(C(=O)Nc2cc(NC(=O)c3ccc(-c4ccccc4)cc3)ccc2C)no1` [Compound 5f, N-(5-([1,1′-biphenyl]-4-carboxamido)-2-methylphenyl)-5-methylisoxazole-3-carboxamide], on FMS (h) (setting [1]), the half-inhibitory concentration (IC50) is above 1e-06 M.

Take `Cc1cc(C(=O)Nc2cc(NC(=O)c3ccc4nn[nH]c4c3)ccc2C)no1` [Compound 5r, N-(5-(1H-benzo[d][1,2,3]triazole-6-carboxamido)-2-methylphenyl)-5-methylisoxazole-3-carboxamide]: on FMS (h) (setting [1]), the IC50 is above 1e-06 M.

For the compound `Cc1cc(C(=O)Nc2cc(NC(=O)c3ccc4cn[nH]c4c3)ccc2C)no1` [Compound 5t, N-(5-(1H-indazole-6-carboxamido)-2-methylphenyl)-5-methylisoxazole-3-carboxamide], the IC50 on FMS (h) (setting [1]) is above 1e-06 M. Same read-out and setting: next, `CCN1CCC(c2ccc(NC(=O)c3cc(C)on3)c(C3=CCCCC3)c2)CC1` [Compound 70b, N-(5-(1-ethylpiperidin-4-yl)-2′,3′,4′,5′-tetrahydro-[1,1′-biphenyl]-2-yl)-5-methylisoxazole-3-carboxamide]: below 1e-07 M. As to `Cc1cc(C(=O)Nc2ccc(C3CCNCC3)cc2C2=CCC(C)CC2)no1` (centres unmarked) [Compound 63b, 5-Methyl-N-(4′-methyl-5-(piperidin-4-yl)-2′,3′,4′,5′-tetrahydro-[1,1′-biphenyl]-2-yl)isoxazole-3-carboxamide], the half-maximal inhibitory concentration (IC50) is below 1e-07 M on FMS (h) (Table 1, read-out: IC50) and below 1e-07 M at FMS (h) (setting [1]). In the case of `Cc1cc(C(=O)Nc2ccc(C3CCC[N+](C)(C)CC3)cc2C2=CCCCC2)no1` (centres unmarked) [Compound 79c, 1,1-dimethyl-4-(6-(5-methylisoxazole-3-carboxamido)-2′,3′,4′,5′-tetrahydro-[1,1′-biphenyl]-3-yl)azepan-1-ium], the half-maximal inhibitory concentration (IC50) at FMS (h) (setting [1]) was below 1e-07 M. Still for that read-out and setting: next, `Cc1cc(C(=O)Nc2ccc(C3CCN(C(=O)CN(C)C)CC3)cc2C2=CCCCC2)no1` [Compound 84b, N-(5-(1-(dimethylglycyl)piperidin-4-yl)-2′,3′,4′,5′-tetrahydro-[1,1′-biphenyl]-2-yl)-5-methylisoxazole-3-carboxamide]: 1e-07 to 1e-06 M.
